According to article PMC11187217, “Anti-adhesive, anti-biofilm and fungicidal action of newly synthesized gemini quaternary ammonium salts” (Scientific Reports, 2024):

What was measured:
C. albicans ATCC 10231 [1] = assay: Adhesion of C. albicans to silicone surface; format: cell-based, Candida albicans
Experimental: (§1) The effect of gemini QAS on the adhesion of C. albicans ATCC 10231 was determined using a modification of the method of Obłąk et al.. […] After incubation, the culture was centrifuged (1000 rcf, 5 min), and the resulting pellet was suspended in PBS (pH 7.4) until OD = 0.8 (λ = 590 nm). • In the case of testing the polystyrene surface, 100 µl of tested gemini QAS at concentrations of 20–1280 µM was added to the wells of a 96-well titration plate, incubated for 2 h at 37 °C, rinsed with sterile distilled water, and then spotted with 100 µl of the obtained culture and incubated at 37 °C for 4 h. After this time, the culture was removed, the plates were rinsed with sterile distilled water and placed in an oven (60 °C, 20 min). Then, crystal violet (0.1%) was added to the wells of the titration plate, stained for 5 min and rinsed with sterile distilled water until all traces of violet were removed from the rinsed water. Then the washing mixture (1% SDS, 50 mmol HCl, 100% isopropanol) was added. The absorbance of the samples was read using a spectrophotometer (BioTek 800 TS Absorbance Reader) at λ = 590 nm. The positive control was the culture wells to which the tested gemini QAS were not added, and the negative control was the medium. The experiment was performed in 3 repetitions. • When the tested surface was stainless steel (round washers Ø 0.4 cm), silicone (0.5 cm long fragments of Foley catheters) or glass (1 cm^2 coverslips), the tested materials were incubated for 2 h at 37 °C with shaking (100 rpm) in the presence of the tested gemini QAS at concentrations of 80–640 µM. Then, the materials were rinsed with sterile distilled water, transferred to tubes with culture and incubated for 4 h at 37 °C with shaking (100 rpm). After incubation, the materials were rinsed with sterile distilled water. […] Next, the washing mixture (1% SDS, 50 mmol HCl, 100% isopropanol) was added and the absorbance of the samples was read using a spectrophotometer (BioTek 800 TS Absorbance Reader) at λ = 590 nm. […] After this time, the colonies growing on the plates were counted. […]

sheep erythrocytes = assay: Hemolysis test; format: cell-based; conditions: 1.5 h, 37 °C; for Concentration up to which no hemolysis was caused: sheep erythrocytes; for Hemolytic effect on sheep erythrocytes: tested 2.5–1280 µM
Experimental: The hemolysis test was performed based on the Obłąk et al.[80] method with modification. Sheep blood (5 cm^3) was centrifuged (699 rcf, 15 min), washed several times with PBS buffer (pH 7.4), and suspended in PBS. […] The positive control was 1% SDS and the negative control was PBS. The plates were incubated for 1.5 h at 37 °C. After incubation, the plates were centrifuged (699 rcf, 15 min) and the supernatant was applied to a new titration plate. Absorbance was measured at λ = 540 nm (BioTek 800 TS Absorbance Reader). The experiment was performed in 4 repetitions.

C. albicans ATCC 10231 [2] = assay: Adhesion of C. albicans to glass surface; format: cell-based, Candida albicans; conditions: 640 µM
Experimental: as §1, with “nm.” for “nm. The positive control was the culture wells to which the tested gemini QAS were not added, and the negative control was the medium. The experiment was performed in 3 repetitions. • When the tested surface was stainless steel (round washers Ø 0.4 cm), silicone (0.5 cm long fragments of Foley catheters) or glass (1 cm^2 coverslips), the tested materials were incubated for 2 h at 37 °C with shaking (100 rpm) in the presence of the tested gemini QAS at concentrations of 80–640 µM. Then, the materials were rinsed with sterile distilled water, transferred to tubes with culture and incubated for 4 h at 37 °C with shaking (100 rpm). After incubation, the materials were rinsed with sterile distilled water.”

[3] = system: C. albicans ATCC 10231 biofilm; assay: Biofilm viability (LIVE/DEAD, confocal microscopy); format: cell-based, Candida albicans; conditions: glass surface, SYTO 9 / propidium iodide
Experimental: The viability of the biofilm formed by C. albicans ATCC 10231 cells was determined using the Filmtracer LIVE/DEAD Biofilm Viability Kit (Invitrogen).
The C. albicans culture was incubated in YPG medium at 37 °C for 18 h. After incubation, the culture was centrifuged (1000 rcf, 5 min), and the resulting pellet was suspended in PBS (pH 7.4) to obtain an OD = 1.5 (λ = 590 nm). 100 µl of C. albicans cell suspension was placed into the wells of the chamber slide plate and incubated for 24 h at 37 °C. After this time, the culture was removed and the plate was rinsed with sterile mQ water. Then, 200 µl of selected tested surfactants in appropriate concentrations was added to each well and incubated for 4 h. After incubation, the plate was rinsed with PBS, 100 µl of the LIVE/DEAD probe was added, and it was incubated for 30 min in the dark. After this time, the probe was removed and the wells were rinsed twice with PBS. Then, 100 µl of 4% formaldehyde in PBS (pH 7.0) was added and it was incubated for 30 min in the dark. Formaldehyde was removed and the wells were rinsed twice with PBS. After peeling off the walls of the plate, a drop of 50% glycerol in PBS was placed on each field and a glass slide was placed on it. The viability of the biofilm formed by C. albicans cells was imaged using a confocal microscope. The negative control was PBS.

[4] = concentration not stated (tested 80–640 µM)

Row | SMILES | Reduction of adhesion of C. albicans cells to silicone (C. albicans ATCC 10231 [1]; [4]) | Concentration up to which no hemolysis was caused (sheep erythrocytes) [µM] | other results
1 | CCCCCCCCCCCCCCCC(=O)N(CCCN(CCC[N+](C)(C)C)C(=O)CCCCCCCCCCCCCCC)CCC[N+](C)(C)C [2xC16MeCO3G3, dimethyl{{3-[N-(3-{N-[3-(dimethylammonium)propyl]hexadecylamido}propyl}hexadecylamido}propyl}}ammonium dimethylcarbonate] | 80–90% | ≤ 80 | 
2 | CCCCCCCCCCCCCCCC(=O)N(CCCN(CCC[N+](C)(C)C)C(=O)CCCCCCCCCCCCCCC)CCC[N+](C)(C)C [2xC16LaG3] |  | ≤ 40 | Reduction of adhesion of C. albicans cells to silicone (C. albicans ATCC 10231 [1]; 640 µM): completely reduced the adhesion
3 | CCCCCCCCCCCC(=O)N(CCCN(CCC[N+](C)(C)C)C(=O)CCCCCCCCCCC)CCC[N+](C)(C)C [2xC12BrG3] |  | ≤ 20 | Reduction of adhesion of C. albicans cells to glass (C. albicans ATCC 10231 [2]): approximately 80%
4 | CCCCCCCCCCCCCCCC(=O)N(CCCN(CCC[N+](C)(C)C)C(=O)CCCCCCCCCCCCCCC)CCC[N+](C)(C)C [2xC16BrG3] |  | ≤ 80 | Impact on survival of C. albicans biofilm (membrane integrity) [3]: strong impact
5 | CCCCCCCCCCCC(=O)N(CCCN(CCC[N+](C)(C)C)C(=O)CCCCCCCCCCC)CCC[N+](C)(C)C [2xC12MeCO3G3, dimethyl{{3-[N-(3-{N-[3-(dimethylammonium)propyl]dodecylamido}propyl}dodecylamido}propyl}}ammonium dimethylcarbonate] | 80–90% |  | Hemolytic effect on sheep erythrocytes (sheep erythrocytes): did not cause hemolysis; Hemolytic effect on sheep erythrocytes (sheep erythrocytes; listed as dimethylcarbonate with 12-carbon alkyl chains): no hemolytic effect
